# Columns and labels:
# Staphylococcus aureus = type: cell-based
# Experimental: An exemplary pharmacokinetic parameter to aid in characterizing the properties of lipopeptide derivative compounds of the disclosure is post-antibiotic effect (PAE) of a lipopeptide derivative. For example, a bacterial culture with an initial count of 10^6 to 10^7 colony forming units per ml (CFU/ml) is treated with a certain concentration of lipopetide derivative for a certain time and a parallel (control) culture is left untreated. After treatment, the lipopetide derivative is removed from the culture (e.g., by dilution 1:1000 in fresh, lipopetide derivative-free medium), and the untreated culture is manipulated in the same way. Then the cultures are further incubated and monitored for bacterial growth over time. […] By way of background and not wishing to be bound by theory, a lipopeptide derivative having a measurable PAE activity will likely provide additional time for the host immune system to remove bacteria that might have survived antibiotic treatment and reproduced after the antibiotic is degraded, removed or filtered from the circulatory system. A longer PAE can influence the clinical outcome of antimicrobial therapy (i.e., a lower dose of a lipopetide derivative may be used to treat an infection or the frequency of a dosing regimen can be reduced).
# After removal of the lipopeptide compounds, bacterial titre was determined each hour to monitor bacterial re-growth. The PAE duration is defined as the difference in time required for antimicrobial exposed bacterial cells versus unexposed bacterial cells to achieve an increase of 1 log10 unit in CFU/mL.
# [1] = In vivo half-life after single i.v. administration, mice; settings: female, Swiss CD1, mouse, plasma, iv, 10 mg/kg
# Experimental: (§1) Yet other exemplary in vivo models can be used to characterize the pharmacokinetics and pharmacodynamic parameters of antimicrobial compounds of this disclosure. Some parameters that can be measured include an in vivo half-life of a compound, elimination rate and clearance, volume of distribution, and bioavailability. For example, briefly, compounds can be administered as a single i.v. or oral (p.o.) dose in mice or rats. At various time points (ranging from 1 minute to 72 hours), blood from treated animals is collected and the concentration of lipopeptide derivative in the ex vivo plasma can be quantified by, for example, liquid chromatography with mass spectrometric detection (LC/MS). After quantification, pharmacokinetics parameters can be calculated using methods known in the art, such as a one compartment model with mono-exponential decay and linear regression analysis (see, e.g., Fantin et al., Antimicrob. Agents Chemotherap. 35: 1413. 1991).
# (§2) A pharmacokinetic parameter that can be measured, and which aids in determining efficacy, after a single i.v. administration of an antimicrobial lipopeptide derivative of the instant disclosure is the systemic half-life of the compound. Briefly, test compounds were dissolved in a 5% mannitol solution (pH was then adjusted) to a concentration of 1 mg/mL (w/v). A single intravenous injection in the lateral caudal vein of Swiss CD1 mice (5 to 6 weeks old, female) or Sprague Dawley rats (male) was used to administer the lipopeptide derivative at a final dose of 10 mg/kg. At various time points (ranging from about 4 minutes to about 24 hours for mice, and 48 or 72 hours for rats) mice were sacrificed and blood was harvested. The concentration of lipopeptide derivative in ex vivo plasma was quantified using liquid chromatography (LC) with mass spectrometric detection (MS).
# in vivo = settings: male, Sprague Dawley, rat, plasma, iv, 10 mg/kg
# Experimental: as §1, §2
# [2] = tested on: S. aureus Smith (SAU0017, ATCC 19636); assay: Intraperitoneal murine model of protection against infection (ED50, Table 21); type: in vivo, Staphylococcus aureus
# Excerpt: (§3) A variety of in vivo models may be used to assess the antimicrobial properties of lipopeptide derivative compounds of this disclosure. For example, antimicrobial compounds of the instant disclosure may be tested for efficacy by measuring a compound's ability to protect a mouse against a microbial infection, such as an infection or disease caused by or related to Gram-positive bacteria, including Staphylococcus aureus, Streptococcus pneumoniae, and Enterococcus faecalis. […] A certain period after infection, mice are then individually treated, for example intravenously (i.v.), with a lipopeptide derivative of this disclosure.
# (§4) Antimicrobial lipopeptide derivatives of the instant invention were tested for antimicrobial activity against Gram-positive bacteria in an intraperitoneal (i.p.) murine model (i.e., bacteria were injected i.p. and lipopeptide compounds were administered intravenously (i.v.)). Mice were infected with Staphylococcus aureus, Streptococcus pneumoniae, or Enterococcus faecalis, which were prepared as follows: S. aureus Smith (SAU0017, ATCC 19636) were grown in culture overnight on trypticase soy broth, harvested and then resuspended in fresh media containing 5% mucin (Sigma Chemical Co.); S. pneumoniae (SPN 0032, ATCC 10813) were grown overnight on blood agar plates and re-suspended in 0.9% sterile saline; and E. faecalis EFS0040 (clinical isolate) were grown overnight in culture on blood heart infusion broth, washed and resuspended in 0.9% saline and mixed with equal volume of sterile fecal rat extract. Swiss CD1 mice were each infected i.p. with bacteria at the following doses: S. aureus at 10^6 CFU/mouse; S. pneumoniae at 10^2 CFU/mouse; or E. faecalis at 10^7.5 CFU/mouse. […] The ED50 for each compound was calculated using the method of Reed and Meunch (Am. J. Hyg. 27: 493, 1938).
# [3] = tested on: E. faecalis EFS0040 (clinical isolate); assay: as above; type: in vivo, Enterococcus faecalis
# Excerpt: as §3, §4
# [4] = tested on: Streptococcus pneumoniae (SPN032, ATCC 1081); assay: Intranasal murine lung infection model; type: in vivo
# Experimental: (§5) Other exemplary in vivo models of infection that may be used to assess, for example, the efficacy of an antimicrobial lipopeptide of the instant disclosure include the following: (A) a mouse (murine) model of lung infection (pneumonia) wherein the bacterial infection is administered intranasally (i.n.); (B) a murine thigh muscle model wherein the bacterial infection is administered intramuscularly (i.m.) in normal or neutropenic (immunocompromised) mice; and (C) a combination murine thigh muscle model (i.m. infection)/lung (i.n.) infection.
# Antimicrobial lipopeptide derivatives of the instant invention were tested for antimicrobial activity against Gram-positive bacteria in an intranasal (i.n.) murine lung infection model (i.e., bacteria were innoculated i.n. and lipopeptide compounds were administered i.v.). Streptococcus pneumoniae (SPN032, ATCC 1081) were grown on 5% sheep blood agar plates for 24 h at 37° C., harvested and then resuspended in 0.9% saline. A group of eight Swiss CD1 mice were sedated with 2% isoflurane, and each was infected i.n. dropwise to the nares with 50 μl of the prepared bacterial inoculum (i.e., a dose of about 10^6 CFU/mouse). […] The ED50 (mg/kg) for each compound was calculated using the method of Reed and Meunch (Am. J. Hyg. 27: 493, 1938).
# [5] = Acute toxicity, maximum tolerated dose (MTD); settings: Swiss CD1, mouse, in vivo, iv
# Experimental: Another measure of toxicity is the maximum tolerated dose (MTD), which is determined as a dose level that is not accompanied by mortality or life-threatening toxicity. The dose ratio between toxic and therapeutic effect is the therapeutic index. […] The data obtained from these cell culture assays and animal studies can be used in formulating a dosage range that is not toxic for use in human subjects. […] The dosage may vary within this range depending upon the dosage form employed and the route of administration utilized. The exact formulation, route of administration and dosage can be chosen by the individual physician in view of the patient's condition or need thereof (see, e.g., Fingl et al., 1975, In: The Pharmacological Basis of Therapeutics, Chapter 1).
# For example, to examine acute toxicity, lipopeptide antibiotics of the invention can be tested in an animal model, such as Swiss CD1 mice, to determine the MTD. In certain embodiments, the animals used to test toxicity of a particular compound can be approximately 5-6 weeks old at the start of the experiment and weigh 22-26 g. The lipopeptides may be administered intravenously (i.v.) into, for example, the caudal tail vein at dose levels that range from about 50 to about 500 mg/kg, or from about 75 to about 250 mg/kg, or from about 100 to about 200 mg/kg, or at a dose range at or below 100 mg/kg. The animals are generally observed immediately after administration, 1-2 hours post administration, 5-8 hours post administration, and once daily thereafter. Observations include both the activity level of the mouse as well as any physical side effects from the administered dose. The animal weight is recorded on day 0 (immediately before dosing) and on day 7.
# [6] = tested on: Enterococcus faecalis (EFS0004); assay: Kill curve (bactericidal activity); type: cell-based; settings: FIG. 4A
# Experimental: (§6) Another measure of the antimicrobial properties of the lipopeptide derivative compounds of this disclosure includes kill curve measurements. Kill curve experiments generally involve exposure of microorganisms to varying concentrations (e.g., multiples of a compound's MIC) of a test compound. The microorganisms may be in culture at log phase of growth or may be in a particular host tissue (e.g., lung) for up to 24 hours before exposure to a test compound. At selected time points, a sample of each culture or tissue can be analyzed for a titre of viable microorganisms, which is generally gauged against the time required for a compound to inhibit growth or kill bacteria.
# (§7) Kill curve experiments were performed with both Staphylococcus aureus (SAU0017) and Enterococcus faecalis (EFS0004) organisms grown to log phase, which were suspended in cation-adjusted Mueller-Hinton broth with additional 0.625 mM Ca^+2 to a concentration of 10^6 CFU/mL. The cultures were then exposed to varying concentrations (i.e., multiples of the MIC) of a lipopeptide derivative and incubated at about 37° C. At selected time points from about 0 hours to about 24 hours, a sample of each culture was analyzed for a titre of viable organisms (CFU/ml), which was compared against the time required for each compound to kill bacteria.
# [7] = tested on: Staphylococcus aureus (SAU0017); assay: Kill curve (bactericidal activity); type: cell-based; settings: FIG. 5A
# Experimental: as §6, §7
# [8] = tested on: S. pneumoniae (SPN 0032, ATCC 10813); assay: Intraperitoneal murine model of protection against infection (ED50, Table 21); type: in vivo, Streptococcus pneumoniae; settings: Streptococcus pneumoniae, ATCC10813, read-out: ED50 in Mice, S. pneumoniae (SPN0032)
# Excerpt: as §3, §4
# [9] = tested on: Staphylococcus aureus (SAU0017); assay: Thigh infection model in neutropenic mice; type: in vivo; settings: Staphylococcus aureus, iv
# Experimental: as §5
# [10] = Swiss CD1 mice infected i.p., compound i.v.
Compound,"Post Antibiotic Effect (hours) 0.5 × MIC (Staphylococcus aureus; exposure one hour at 0.5 × MIC, S. aureus log phase) [h]",Post Antibiotic Effect (hours) 1 × MIC (Staphylococcus aureus; exposure one hour at 1 × MIC) [h],Post Antibiotic Effect (hours) 2 × MIC (Staphylococcus aureus; exposure one hour at 2 × MIC) [h],Post Antibiotic Effect (hours) 4 × MIC (Staphylococcus aureus; exposure one hour at 4 × MIC) [h],half-life [1] [min],half-life (in vivo) [min],"ED50 in Mice, S. aureus (SAU0017) [2, 10] [mg/kg]","ED50 in Mice, E. faecalis (EFS0040) [3, 10] [mg/kg]","ED50 ([4]; Swiss CD1 mice, i.n. S. pneumoniae, i.v. treatment at 3, 24 and 48 hours post-infection, deaths over ten days) [mg/kg]",MTD at 7 days [5] [mg/kg],bactericidal or bacteriostatic in kill curve [6],bactericidal or bacteriostatic in kill curve [7],"ED50 ([2]; Staphylococcus aureus, ATCC19636, read-out: ED50 in Mice, S. aureus (SAU0017)) [mg/kg]",ED50 [8] [mg/kg],"ED50 ([3]; Enterococcus faecalis, read-out: ED50 in Mice, E. faecalis (EFS0040)) [mg/kg]","ED50 ([4]; Streptococcus pneumoniae, ATCC1081, iv) [mg/kg]",ED50 [9] [mg/kg]
"CCCCCCCCCCCC(=O)Nc1ccc(C(=O)NC(CC(=O)O)C(=O)NC2C(=O)N3CCCCC3C(=O)NC(C(C)C(=O)O)C(=O)NC(CC(=O)O)C(=O)NCC(=O)NC(CC(=O)O)C(=O)NCC(=O)NC(C(C)NC(=O)CCN)C(=O)NC(C(C)C)C(=O)N3CCCC3C(=O)NC2C)cc1 (stereo not drawn) [Compound 280, C12-PABA-Amphomycin-9-(β-Ala)]",2.5,1.5,1.9,2.4,345,424,6.5,2.1,1.8,200 to 400,–,–,–,–,–,–,–
"CN[C@H](CC(C)C)C(=O)N[C@H]1C(=O)N[C@@H](CC(N)=O)C(=O)N[C@H]2C(=O)N[C@H]3C(=O)N[C@H](C(=O)N[C@H](C(=O)O)c4cc(O)cc(O)c4-c4cc3ccc4O)[C@H](O)c3ccc(c(Cl)c3)Oc3cc2cc(c3O[C@@H]2O[C@H](CO)[C@@H](O)[C@H](O)[C@H]2O[C@H]2C[C@](C)(N)[C@H](O)[C@H](C)O2)Oc2ccc(cc2Cl)[C@H]1O [Vancomycin, reference compound]",–,–,–,–,–,–,–,–,–,–,bacteriostatic,bacteriostatic,0.9 to 2.4,1.75,2,3 to 4.3,0.9 to 1.6

# Source: US7868135B2, “Compositions of lipopeptide antibiotic derivatives and methods of use thereof” (priority 2003, dated 2011)
